Earlier results on one substance are cited in patent publication US20200155636A1, “Medicament and Beverage for Improving Joint and Bone Diseases” (priority 2017, published 2020).

The conditions of this data set: oral application.

Regarding hyaluronic acid, the “stability against gastric acid” value is given as “survives the gastric acid”. Also, the absorption result (small intestine) is listed as “absorbed in the small intestine”.
